The target of one test is ErbB2 V777L (Homo sapiens (Human), UniProt P04626, V777L). The test can be described thus: ErbB enzyme assay (CisBio HTRF-KinEASE-TK), ErbB2 V777L. The format is biochemical. An outline of the steps: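 HTRF KinEASE-TK tyrosine-kinase read-out of substrate phosphorylation after a final 1 h at ambient temperature, from the 655/620 nm emission ratio.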
In general terms: Time-resolved FRET reads energy transfer from a long-lived donor to a nearby acceptor.

The target of a further test is EGFR WT (Homo sapiens (Human), UniProt P00533). Description: ErbB enzyme assay (CisBio HTRF-KinEASE-TK), EGFR WT. To be noted: ATP at Km (25 μM), 1 h incubation. The format is biochemical. An outline of the steps:
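Potency comes from a homogeneous time-resolved fluorescence kinase format measuring tyrosine substrate phosphorylation. Reactions and detection steps each run 1 h at ambient temperature. IC50 values are interpolated from 4-parameter logistic fits of percent-of-control data.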

Molecules are shown by their SMILES.

EGFR WT, sequence (P00533 25-1210): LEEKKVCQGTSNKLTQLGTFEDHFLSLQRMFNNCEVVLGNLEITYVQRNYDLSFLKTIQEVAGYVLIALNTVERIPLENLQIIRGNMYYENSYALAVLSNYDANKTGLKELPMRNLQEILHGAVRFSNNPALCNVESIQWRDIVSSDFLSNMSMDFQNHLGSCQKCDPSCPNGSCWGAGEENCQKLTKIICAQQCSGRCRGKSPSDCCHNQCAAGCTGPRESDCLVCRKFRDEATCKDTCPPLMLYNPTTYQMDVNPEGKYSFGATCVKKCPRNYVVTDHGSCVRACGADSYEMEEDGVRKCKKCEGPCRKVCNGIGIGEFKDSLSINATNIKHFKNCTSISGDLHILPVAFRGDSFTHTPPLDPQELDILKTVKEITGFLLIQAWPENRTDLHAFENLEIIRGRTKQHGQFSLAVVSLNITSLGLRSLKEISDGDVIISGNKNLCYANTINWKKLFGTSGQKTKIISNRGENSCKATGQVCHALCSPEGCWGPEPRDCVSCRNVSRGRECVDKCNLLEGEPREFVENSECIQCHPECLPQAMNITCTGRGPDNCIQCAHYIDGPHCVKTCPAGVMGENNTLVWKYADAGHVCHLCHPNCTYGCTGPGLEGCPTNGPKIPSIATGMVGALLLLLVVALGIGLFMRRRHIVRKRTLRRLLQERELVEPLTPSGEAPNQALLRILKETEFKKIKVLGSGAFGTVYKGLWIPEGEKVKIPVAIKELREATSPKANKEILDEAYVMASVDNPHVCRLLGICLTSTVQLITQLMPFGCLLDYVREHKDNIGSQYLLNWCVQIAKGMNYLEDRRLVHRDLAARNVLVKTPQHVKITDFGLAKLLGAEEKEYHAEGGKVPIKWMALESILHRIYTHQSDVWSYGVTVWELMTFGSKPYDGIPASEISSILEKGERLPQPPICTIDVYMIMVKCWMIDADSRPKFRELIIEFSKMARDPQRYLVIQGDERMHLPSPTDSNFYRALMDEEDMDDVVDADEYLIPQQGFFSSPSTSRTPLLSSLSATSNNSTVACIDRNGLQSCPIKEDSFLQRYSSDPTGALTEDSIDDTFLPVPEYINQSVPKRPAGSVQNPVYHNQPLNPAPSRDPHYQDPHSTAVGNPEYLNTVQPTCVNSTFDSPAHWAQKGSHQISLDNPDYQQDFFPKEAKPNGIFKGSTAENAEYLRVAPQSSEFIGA
ErbB2 V777L, sequence (P04626 23-1255 V777L): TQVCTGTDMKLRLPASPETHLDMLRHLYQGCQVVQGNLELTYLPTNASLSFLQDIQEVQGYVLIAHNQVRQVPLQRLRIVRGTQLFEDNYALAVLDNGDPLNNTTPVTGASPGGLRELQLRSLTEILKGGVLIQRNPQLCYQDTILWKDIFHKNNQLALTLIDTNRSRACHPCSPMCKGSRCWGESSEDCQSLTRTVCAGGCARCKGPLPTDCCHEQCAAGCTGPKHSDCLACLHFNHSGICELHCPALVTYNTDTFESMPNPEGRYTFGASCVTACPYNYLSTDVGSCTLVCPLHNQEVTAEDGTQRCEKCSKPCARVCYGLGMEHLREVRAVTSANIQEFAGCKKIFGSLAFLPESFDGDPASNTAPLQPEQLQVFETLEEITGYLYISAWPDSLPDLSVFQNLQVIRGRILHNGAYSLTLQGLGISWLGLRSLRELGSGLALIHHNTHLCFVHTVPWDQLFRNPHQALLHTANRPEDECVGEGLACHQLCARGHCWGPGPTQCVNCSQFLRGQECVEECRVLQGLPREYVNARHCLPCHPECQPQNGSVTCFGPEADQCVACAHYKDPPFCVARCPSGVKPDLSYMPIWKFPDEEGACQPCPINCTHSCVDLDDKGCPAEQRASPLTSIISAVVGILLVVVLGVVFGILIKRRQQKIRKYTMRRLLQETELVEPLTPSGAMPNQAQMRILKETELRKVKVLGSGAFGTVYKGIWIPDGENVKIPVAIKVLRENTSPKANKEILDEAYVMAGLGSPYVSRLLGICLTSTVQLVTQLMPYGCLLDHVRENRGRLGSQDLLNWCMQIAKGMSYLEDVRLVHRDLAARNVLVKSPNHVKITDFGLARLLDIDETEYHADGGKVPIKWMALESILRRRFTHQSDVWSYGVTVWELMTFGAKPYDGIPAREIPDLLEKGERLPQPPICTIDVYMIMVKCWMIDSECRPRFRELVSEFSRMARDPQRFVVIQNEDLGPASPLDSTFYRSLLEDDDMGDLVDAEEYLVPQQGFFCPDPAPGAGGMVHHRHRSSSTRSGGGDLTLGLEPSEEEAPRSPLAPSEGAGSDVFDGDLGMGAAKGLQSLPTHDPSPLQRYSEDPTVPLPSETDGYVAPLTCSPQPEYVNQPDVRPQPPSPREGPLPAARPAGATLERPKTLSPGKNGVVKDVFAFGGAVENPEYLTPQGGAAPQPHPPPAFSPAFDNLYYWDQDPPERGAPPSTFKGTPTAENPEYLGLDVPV

Regarding `C=CC(=O)N1CCN(c2ncc3ncnc(Nc4ccc(Oc5ccc6c(c5)nnn6C)c(C)c4)c3n2)C[C@@H]1CC` [Compound 115, (S)-1-(2-ethyl-4-(8-((3-methyl-4-((1-methyl-1H-benzo[d][1,2,3]triazol-5-yl)oxy)phenyl)amino)pyrimido[5,4-d]pyrimidin-2-yl)piperazin-1-yl)prop-2-en-1-one], the IC50 (as a rule, the concentration at which inhibition is half-maximal) against ErbB2 V777L is 500 to 1000 nM; at EGFR WT, ≥ 1000 nM.

With `C=CC(=O)N1CCN(c2ccc3ncnc(Nc4cc(C)c(Oc5ccc6c(c5)nnn6C)cc4F)c3n2)CC1` [Compound 94, 1-(4-(4-((2-fluoro-5-methyl-4-((1-methyl-1H-benzo[d][1,2,3]triazol-5-yl)oxy)phenyl)amino)pyrido[3,2-d]pyrimidin-6-yl)piperazin-1-yl)prop-2-en-1-one], the IC50 is 50 to 100 nM on ErbB2 V777L and 100 to 500 nM on EGFR WT.

Turning to `C=CC(=O)N1CCN(c2ccc3ncnc(Nc4ccc(Oc5ccc6c(c5)nnn6C)c(C)c4F)c3n2)C[C@H]1CC` [Compound 258, (R)-1-(2-ethyl-4-(4-((2-fluoro-3-methyl-4-((1-methyl-1H-benzo[d][1,2,3]triazol-5-yl)oxy)phenyl)amino)pyrido[3,2-d]pyrimidin-6-yl)piperazin-1-yl)prop-2-en-1-one], the IC50 against ErbB2 V777L and against EGFR WT was 100 to 500 nM in each case.

Consider `C=CC(=O)N1CCN(c2ncc3ncnc(Nc4cc(F)c(Oc5ccc6c(c5)nnn6C)cc4F)c3n2)CC1` [Compound 31, 1-(4-(8-((2,5-difluoro-4-((1-methyl-1H-benzo[d][1,2,3]triazol-5-yl)oxy)phenyl)amino)pyrimido[5,4-d]pyrimidin-2-yl)piperazin-1-yl)prop-2-en-1-one], for which the IC50 on ErbB2 V777L and against EGFR WT was 100 to 500 nM in each case.

Take `C=CC(=O)N1C2C=C(c3ccc4ncnc(Nc5ccc(Oc6ccc7c(c6)nnn7C)c(C)c5F)c4n3)CC1CCC2` (centres unmarked) [Compound 414, 1-(3-(4-((2-fluoro-3-methyl-4-((1-methyl-1H-benzo[d][1,2,3]triazol-5-yl)oxy)phenyl)amino)pyrido[3,2-d]pyrimidin-6-yl)-9-azabicyclo[3.3.1]non-2-en-9-yl)prop-2-en-1-one]: the IC50 against ErbB2 V777L and against EGFR WT was 500 to 1000 nM in each case.

Turning to `C=CC(=O)N1CCN(c2ccc3ncnc(Nc4ccc(Oc5ccc6c(c5)nnn6C)c(C)c4)c3n2)CC[C@H]1C` [Compound 356, (R)-1-(7-methyl-4-(4-((3-methyl-4-((1-methyl-1H-benzo[d][1,2,3]triazol-5-yl)oxy)phenyl)amino)pyrido[3,2-d]pyrimidin-6-yl)-1,4-diazepan-1-yl)prop-2-en-1-one], the results for the IC50 at ErbB2 V777L and at EGFR WT were 500 to 1000 nM and ≥ 1000 nM, respectively.

In the case of `C=CC(=O)N1C2CCC1CN(c1ncc3ncnc(Nc4cc(C)c(Oc5ccc6c(c5)ncn6C(F)F)cc4OC)c3n1)C2` [Compound 40, 1-(3-(8-((4-((1-(difluoromethyl)-1H-benzo[d]imidazol-5-yl)oxy)-2-methoxy-5-methylphenyl)amino)pyrimido[5,4-d]pyrimidin-2-yl)-3,8-diazabicyclo[3.2.1]octan-8-yl)prop-2-en-1-one 2,2,2-trifluoroacetate], the IC50 against ErbB2 V777L fell in the range of 100 to 500 nM; on EGFR WT, 500 to 1000 nM.

In the case of `C=CC(=O)N[C@@H]1C[C@@H](F)CN(c2ccc3ncnc(Nc4ccc(Oc5ccc6c(c5)nnn6C)c(C)c4F)c3n2)C1` [Compound 295, N-((3R,5R)-5-fluoro-1-(4-((2-fluoro-3-methyl-4-((1-methyl-1H-benzo[d][1,2,3]triazol-5-yl)oxy)phenyl)amino)pyrido[3,2-d]pyrimidin-6-yl)piperidin-3-yl)acrylamide], the IC50 against ErbB2 V777L and against EGFR WT was 100 to 500 nM each time.

Turning to `C=CC(=O)N1CCN(c2ccc3ncnc(Nc4ccc(Oc5ccc6c(c5)nnn6C)c(C)c4)c3n2)C[C@H]1C(C)C` [Compound 297, (R)-1-(2-isopropyl-4-(4-((3-methyl-4-((1-methyl-1H-benzo[d][1,2,3]triazol-5-yl)oxy)phenyl)amino)pyrido[3,2-d]pyrimidin-6-yl)piperazin-1-yl)prop-2-en-1-one], the IC50 fell in the range of 50 to 100 nM on ErbB2 V777L and 100 to 500 nM at EGFR WT.

Turning to `C=CC(=O)N1CCN(c2ncc3ncnc(Nc4c(F)cc(Oc5ccc6c(c5)nnn6C)cc4F)c3n2)CC1` [Compound 20, 1-(4-(8-((2,6-difluoro-4-((1-methyl-1H-benzo[d][1,2,3]triazol-5-yl)oxy)phenyl)amino)pyrimido[5,4-d]pyrimidin-2-yl)piperazin-1-yl)prop-2-en-1-one], the IC50 against ErbB2 V777L was in the range of 500 to 1000 nM; against EGFR WT it was 100 to 500 nM.

Take `C=CC(=O)N1[C@@H]2COC[C@H]1CN(c1ncc3ncnc(Nc4ccc(Oc5ccc6c(c5)nnn6C)c(C)c4)c3n1)C2` [Compound 140, 1-((1R,5S)-7-(8-((3-methyl-4-((1-methyl-1H-benzo[d][1,2,3]triazol-5-yl)oxy)phenyl)amino)pyrimido [5,4-d]pyrimidin-2-yl)-3-oxa-7,9-diazabicyclo[3.3.1]nonan-9-yl)prop-2-en-1-one]: the IC50 on ErbB2 V777L lay in the range of 50 to 100 nM; on EGFR WT, 100 to 500 nM.

Turning to `C=CC(=O)N1CC=C(c2ncc3ncnc(Nc4ccc(Oc5ccn6ncnc6c5)c(C)c4F)c3n2)C[C@@H]1C` [Compound 404, (S)-1-(4-(8-((4-([1,2,4]triazolo[1,5-a]pyridin-7-yloxy)-2-fluoro-3-methylphenyl)amino)pyrimido[5,4-d]pyrimidin-2-yl)-2-methyl-3,6-dihydropyridin-1(2H)-yl)prop-2-en-1-one], the IC50 against ErbB2 V777L and at EGFR WT was 100 to 500 nM each time.

For `C=CC(=O)N[C@H]1CCCN(c2ccc3ncnc(Nc4ccc(Oc5ccc6c(c5)nnn6C)c(C)c4F)c3n2)[C@@H]1C` (single isomer, unassigned) [Compound 348], the IC50 against ErbB2 V777L lay within 100 to 500 nM; against EGFR WT, 50 to 100 nM.

Turning to `C=CC(=O)N1CCN(c2ccc3ncnc(Nc4ccc(Oc5cc6nnn(C)c6c(F)c5C)c(C)c4)c3n2)C[C@H]1C` [Compound 299, (R)-1-(4-(4-((4-((7-fluoro-1,6-dimethyl-1H-benzo[d][1,2,3]triazol-5-yl)oxy)-3-methylphenyl)amino)pyrido[3,2-d]pyrimidin-6-yl)-2-methylpiperazin-1-yl)prop-2-en-1-one], the IC50 was 100 to 500 nM against ErbB2 V777L and ≥ 1000 nM on EGFR WT.

`C=CC(=O)N1CCN(c2ncc3ncnc(Nc4ccc(Oc5cc6nnn(C)c6c(C)c5F)c(C)c4F)c3n2)C[C@H]1C` [Compound 180, (R)-1-(4-(8-((2-fluoro-4-((6-fluoro-1,7-dimethyl-1H-benzo[d][1,2,3]triazol-5-yl)oxy)-3-methylphenyl)amino)pyrimido[5,4-d]pyrimidin-2-y1)-2-methylpiperazin-1-yl)prop-2-en-1-one]: the IC50 against ErbB2 V777L and against EGFR WT was 50 to 100 nM throughout.

For `C=CC(=O)N1C[C@H]2C[C@@H]1CN(c1ncc3ncnc(Nc4ccc(Oc5cc(F)c6c(c5)ncn6C)c(C)c4F)c3n1)C2` [Compound 167, 1-((1S,5R)-3-(8-((2-fluoro-4-((7-fluoro-1-methyl-1H-benzo[d]imidazol-5-y1)oxy)-3-methylphenyl)amino)pyrimido[5,4-d]pyrimidin-2-yl)-3,6-diazabicyclo[3.2.1]octan-6-yl)prop-2-en-1-one], the IC50 on ErbB2 V777L is 100 to 500 nM; against EGFR WT, < 50 nM.

Take `C=CC(=O)N[C@@H]1CCCCN(c2ncc3ncnc(Nc4ccc(Oc5ccc6c(c5)nnn6C)c(C)c4F)c3n2)C1` [Compound 170, (R)-N-(1-(8-((2-fluoro-3-methyl-4-((1-methyl-1H-benzo[d][1,2,3]triazol-5-yl)oxy)phenyl)amino)pyrimido[5,4-d]pyrimidin-2-yl)azepan-3-yl)acrylamide]: the IC50 at ErbB2 V777L and on EGFR WT was 100 to 500 nM in each case.

For the compound `C=CC(=O)N1C2CCC1CN(c1ccc3ncnc(Nc4cc(C)c(Oc5ccc6c(c5)nnn6C)cc4OC)c3n1)C2` [Compound 80, 1-(3-(4-((2-methoxy-5-methyl-4-((1-methyl-1H-benzo[d][1,2,3]triazol-5-yl)oxy)phenyl)amino)pyrido[3,2-d]pyrimidin-6-yl)-3,8-diazabicyclo[3.2.1]octan-8-yl)prop-2-en-1-one], the IC50 against ErbB2 V777L and against EGFR WT was 100 to 500 nM in each case.

On to `C=CC(=O)N1CCN(c2ncc3ncnc(Nc4cc(C)c(Oc5ccc6c(c5)ncn6C(F)F)cc4OC)c3n2)CC1` [Compound 37, 1-(4-(8-((4-((1-(difluoromethyl)-1H-benzo[d]imidazol-5-y1)oxy)-2-methoxy-5-methylphenyl)amino)pyrimido[5,4-d]pyrimidin-2-yl)piperazin-1-yl)prop-2-en-1-one 2,2,2-trifluoroacetate], for which the IC50 at ErbB2 V777L is 50 to 100 nM; on EGFR WT, 100 to 500 nM.

Regarding `C=CC(=O)N1CCN(c2ncc3ncnc(Nc4cc(C)c(Oc5ccc6c(c5)nnn6C)c(F)c4)c3n2)C[C@H]1C` [Compound 155, (R)-1-(4-(8-((3-fluoro-5-methyl-4-((1-methyl-1H-benzo[d][1,2,3]triazol-5-yl)oxy)phenyl)amino)pyrimido[5,4-d]pyrimidin-2-y1)-2-methylpiperazin-1-yl)prop-2-en-1-one], the IC50 against ErbB2 V777L fell in the range of 100 to 500 nM; against EGFR WT, 500 to 1000 nM.

With `C=CC(=O)N1CCCN(c2ccc3ncnc(Nc4ccc(Oc5ccc6c(c5)nnn6C)c(C)c4)c3n2)C[C@H]1C` [Compound 285, (R)-1-(2-methyl-4-(4-((3-methyl-4-((1-methyl-1H-benzo[d][1,2,3]triazol-5-yl)oxy)phenyl)amino)pyrido[3,2-d]pyrimidin-6-yl)-1,4-diazepan-1-yl)prop-2-en-1-one], the IC50 is 500 to 1000 nM against ErbB2 V777L and ≥ 1000 nM against EGFR WT.

On to `C=CC(=O)N1CCN(c2ccc3ncnc(Nc4cc(C)c(Oc5ccc6c(c5)nnn6C)cc4OC(F)F)c3n2)CC1` [Compound 315, 1-(4-(4-((2-(difluoromethoxy)-5-methyl-4-((1-methyl-1H-benzo[d][1,2,3]triazol-5-yl)oxy)phenyl)amino)pyrido[3,2-d]pyrimidin-6-yl)piperazin-1-yl)prop-2-en-1-one], for which the IC50 lay within 50 to 100 nM at ErbB2 V777L and 100 to 500 nM on EGFR WT.

The record behind these values is patent US20250129078A1, “ERBB2 INHIBITORS” (Cogent Biosciences, Inc., priority 2023, published 2025).
